{"source": "patent US11767330B2", "about": "“Citrate salt, pharmaceutical compositions, and methods of making and using the same” (Foghorn Therapeutics Inc., priority 2021, dated 2023)", "key": {"BRD9": {"molecular_target": "T1, BRD9 (Homo sapiens, UniProt Q9H8M2)", "T1 sequence (Q9H8M2 1-597)": "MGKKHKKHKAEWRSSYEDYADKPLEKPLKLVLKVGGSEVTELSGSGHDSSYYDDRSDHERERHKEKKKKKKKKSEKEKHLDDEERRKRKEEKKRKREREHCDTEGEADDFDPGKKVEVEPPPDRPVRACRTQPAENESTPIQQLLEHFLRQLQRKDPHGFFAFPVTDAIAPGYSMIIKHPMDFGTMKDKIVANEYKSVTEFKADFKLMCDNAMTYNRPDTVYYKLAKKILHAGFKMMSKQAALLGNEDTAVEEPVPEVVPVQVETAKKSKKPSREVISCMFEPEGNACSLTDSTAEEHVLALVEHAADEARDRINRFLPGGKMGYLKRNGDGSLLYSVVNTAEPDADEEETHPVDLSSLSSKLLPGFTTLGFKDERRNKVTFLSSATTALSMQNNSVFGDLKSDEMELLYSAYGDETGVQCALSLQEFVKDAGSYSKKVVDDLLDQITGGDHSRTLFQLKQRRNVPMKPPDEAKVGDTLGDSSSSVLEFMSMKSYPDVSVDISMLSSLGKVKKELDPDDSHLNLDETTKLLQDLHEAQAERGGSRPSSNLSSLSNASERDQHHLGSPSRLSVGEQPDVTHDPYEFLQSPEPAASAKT", "test": "BRD9 degradation in synovial sarcoma tumor in vivo, western blot (Example 12)", "set-up": "Tumors were lysed with 1×RIPA lysis buffer; from tissue; host or cells: SYO-1 xenograft tumours in BALB/c Nude mice; species or system mice", "settings": "1 mg/kg, i.p., 4 weeks; tumors 8, 72, 168 hours post last dose", "method": "Method: Mice were treated with D1, 1 mg/kg, i.p. for 4 weeks. Mice were then euthanized, and tumors were collected at 8 hours, 72 hours, and 168 hours post last dose. Tumors were lysed with 1×RIPA lysis buffer (Boston BioProducts, BP-115D) with protease and phosphatase protein inhibitor (Roche Applied Science #04906837001 & 05892791001). Equal amounts of lysate (30 μg) were loaded in 4-12% Bis-Tris Midi Protein Gels in 1×MOPS buffer; samples ran at 120 V for 120 minutes. Protein was transferred to membrane with TransBlot at 250 mA for 150 minutes, and then membranes were blocked with Odyssey blocking buffer for 1 hour at room temperature. Membranes were hybridized overnight in cold room with primary antibodies. Images acquired using Li—COR imaging system (Li—COR Biotechnology, Lincoln, Nebr.)."}, "[1]": {"test_system": "SYO-1 human biphasic synovial sarcoma tumor cells", "test": "SYO-1 xenograft tumor growth (Example 11)", "type": "in vivo", "settings": "1 mg/kg, i.p., daily, 3 weeks, NOD SCID mice", "method": "Method: NOD SCID mice (Beijing Anikeeper Biotech, Beijing) were inoculated subcutaneously on the right flank with the single cell suspension of SYO-1 human biphasic synovial sarcoma tumor cells (5×106) in 100 μL Dulbecco's Modified Eagle Medium (DMEM) with 10% fetal bovine serum (FBS). The mice were randomized into either control group [10% dimethyl sulfoxide (DMSO), 40% polyethylene glycol (PEG400) and 50% water], or treatment group D1 when the mean tumor size reached about 117 mm^3. Mice were dosed daily through intraperitoneal (i.p.) route over the course of 3 weeks. All dose volumes were adjusted by body weights in terms of mg/kg."}}, "note": "“Also recorded” adds a separate entry of the source.", "data": [{"compound": "COc1cc(-c2cn(C)c(=O)c3cnc(N4CCC4)cc23)cc(OC)c1CN1CCC(CN2CCC3(CC2)CN(c2ccc4c(c2)C(=O)N(C2CCC(=O)NC2=O)C4)C3)CC1", "note": "(racemic) [Compound D1, 3-[6-(7-[[1-([4-[6-(azetidin-1-yl)-2-methyl-1-oxo-2,7-naphthyridin-4-yl]-2,6-dimethoxyphenyl]methyl)piperidin-4-yl]methyl]-2,7-diazaspiro[3.5]nonan-2-yl)-1-oxo-3H-isoindol-2-yl]piperidine-2,6-dione]", "values": [{"measurement": "BRD9 level in tumor (western blot)", "setting": "BRD9", "value": "BRD9 inhibition; also recorded: complete degradation of BRD9 target up to 168 hours after dose"}, {"measurement": "tumor growth", "setting": "[1]", "value": "tumor growth inhibition"}]}]}
